Among the data in PMC9249579, “Strawberry fruit FanCXE1 carboxylesterase is involved in the catabolism of volatile esters during the ripening process” (Horticulture Research, 2022) are Km values, retold here.

The test has as its system T1, FanCXE1.
T1 construct: full-length, 981 bp ORF (326 residues from ORF length), 37 kDa; N-terminal GST fusion (pGEX-4T-1), tag kept, 64 kDa; E. coli, semipurified on GST-sepharose; Gly-82-Gly-83 oxyanion hole
As to the kind of experiment: colorimetric naphthol release (DBLS reagent, […] nm). Particulars: optimum pH (7-7.5) and temperature (25-30°C), 20 min; semipurified GST fusion. Type of test: biochemical, Fragaria x ananassa.

Turning to `CC(=O)Oc1cccc2ccccc12` [α-Naphthyl acetate], the Km was 678 ± 170 µM.
As for `CCCC(=O)Oc1cccc2ccccc12` [α-Naphthyl butyrate], the Km came to 1580 ± 190 µM.
The figure for `CCCCCC(=O)Oc1ccc2ccccc2c1` [β-Naphthyl hexanoate] is 572 ± 250 µM.

The term Km denotes the concentration of substrate that gives half-maximal velocity.
